From patent publication US8709764B2, “Enzymatic demethylation of flavonoids” (Universiteit Gent, priority 2005, dated 2014)

Tests used:
[1] = target: T1, human estrogen receptor (ERα) (Homo sapiens, UniProt P03372); assay: Yeast Estrogenic Screen of extracts of fecal culture incubations with IX; type: cell-based
T1 construct: expressed in transfected cells; host or cells: Saccharomyces cerevisiae
T1 sequence (P03372 1-595): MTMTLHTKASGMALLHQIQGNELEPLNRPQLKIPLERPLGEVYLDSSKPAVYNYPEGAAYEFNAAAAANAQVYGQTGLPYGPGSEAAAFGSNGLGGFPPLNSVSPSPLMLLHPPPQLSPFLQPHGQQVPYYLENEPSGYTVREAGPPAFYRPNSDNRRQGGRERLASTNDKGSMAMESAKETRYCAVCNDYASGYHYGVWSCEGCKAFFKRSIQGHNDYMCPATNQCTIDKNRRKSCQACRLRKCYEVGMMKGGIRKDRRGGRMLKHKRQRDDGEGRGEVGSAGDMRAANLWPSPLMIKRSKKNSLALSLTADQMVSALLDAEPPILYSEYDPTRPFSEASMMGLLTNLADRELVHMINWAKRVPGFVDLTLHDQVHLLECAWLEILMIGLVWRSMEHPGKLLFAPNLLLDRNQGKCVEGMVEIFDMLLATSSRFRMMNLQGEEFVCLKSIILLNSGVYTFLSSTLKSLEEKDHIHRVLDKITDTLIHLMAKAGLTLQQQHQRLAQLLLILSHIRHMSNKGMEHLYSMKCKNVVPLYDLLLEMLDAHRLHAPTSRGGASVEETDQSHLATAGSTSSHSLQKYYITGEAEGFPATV
Protocol: The capacity of the cultures obtained from fecal samples A, B, C and D (further referred as cultures A-D) to degrade or transform the hop prenylflavonoid IX was tested by incubating the fecal cultures (10% (v/v)) in Brain Heart Infusion broth (with 0.5 g/l cystein-HCl) with 25 mg/l of isoxanthohumol for a period of 8 days under anaerobic conditions. Extracts of the incubations at days 0 and 8 were assayed for bioactive transformation products of IX using a Yeast Estrogenic Screen, according to De Boever et al. (2001) Env. Health Perspectives 109, 691-697, based on Routledge & Sumpter (1996) Environ. Toxicol. Chem. 15, 241-248. In brief, Saccharomyces cerevisiae, was transformed with the human estrogen receptor (ERα) gene, together with expression plasmids containing responsive elements and the lacZ reporter gene (encoding the enzyme β-galactosidase). β-galactosidase activity is quantified at 540 nm by the conversion of the chromogenic substance chlorophenol red-β-D-galactopyranoside into chlorophenol red. The bioassay response is expressed as the absorbance at 540 nm divided by the optical density at 630 nm [(A540/A630)net]. The estrogenic activity of the samples was expressed as percentage equivalence to 10 nM estradiol (E2) which elicited a 100% response in the estrogen receptor bioassay. […]

[2] = tested on: human fecal cultures; assay: Incubation of X or IX with human fecal cultures A-D for 8 days, conversion products detected by HPLC; type: in vitro ADME; conditions: fecal cultures A, B and D, 25 mg/l, 8 days
Protocol: (§1) Fecal slurries of 20% (w/v) fresh fecal samples were prepared by homogenizing the feces with phosphate buffered saline (0.1 M, pH 7) containing 1 g/l sodiumthioglycolate as reducing agent. The particulate material was removed by centrifugation (1 min, 500×g). The supernatant is hereafter called “the culture”.
The capacity of the cultures obtained from fecal samples A, B, C and D (further referred as cultures A-D) to degrade or transform the hop prenylflavonoid IX was tested by incubating the fecal cultures (10% (v/v)) in Brain Heart Infusion broth (with 0.5 g/l cystein-HCl) with 25 mg/l of isoxanthohumol for a period of 8 days under anaerobic conditions. Extracts of the incubations at days 0 and 8 were assayed for bioactive transformation products of IX using a Yeast Estrogenic Screen, according to De Boever et al. (2001) Env. Health Perspectives 109, 691-697, based on Routledge & Sumpter (1996) Environ. Toxicol. Chem. 15, 241-248. In brief, Saccharomyces cerevisiae, was transformed with the human estrogen receptor (ERα) gene, together with expression plasmids containing responsive elements and the lacZ reporter gene (encoding the enzyme β-galactosidase). β-galactosidase activity is quantified at 540 nm by the conversion of the chromogenic substance chlorophenol red-β-D-galactopyranoside into chlorophenol red. The bioassay response is expressed as the absorbance at 540 nm divided by the optical density at 630 nm [(A540/A630)net]. The estrogenic activity of the samples was expressed as percentage equivalence to 10 nM estradiol (E2) which elicited a 100% response in the estrogen receptor bioassay. The bioassays were performed in 96-well plates in which 10 μL of the test compounds were tested and incubated with 240 μL of the genetically modified yeast (optical density of 0.25 at 610 nm). Serial dilutions of the test compounds were made in dimethylsulfoxide, which allowed generating dose-response curves for […]. The data were fitted by a 4 parametric logistic model using the Marquardt-Levenberg algorithm (Sigmaplot 4.0, SPSS Inc., Chicago, Ill., USA) (De Boever et al. (2001) Env. Health Perspectives 109, 691-697).
To further test this transformation, cultures A-D (10% (v/v)) were incubated for 8 days in Brain Heart Infusion broth (with 0.5 g/l cystein-HCl) with either X or IX at a concentration of 25 mg/l under anaerobic conditions and conversion products were detected by HPLC (Table 1). […] However, in culture C almost 40% of 8-PN was recovered, which explains the increase in estrogenic properties of culture C.

[3] = tested on: fecal culture B supplemented with E. limosum; assay: Supplementation of selected E. limosum strain to non-converting fecal culture B incubated with IX; type: in vitro ADME, human
Protocol: The most efficient E. limosum strain, obtained from the selection experiment in example 2, was supplemented to the originally non-converting culture B of example 1, to examine the capacity of this strain to initiate the production of 8-PN in the complex environment of a fecal suspension. The strain was added to the culture in proportions ranging from 0% up to 100% (v/v). This mixture was incubated with 10% (v/v) of 25 mg/L IX for a period of seven days in Brain Heart Infusion broth (with 0.5 g/l cystein-HCl) under anaerobic conditions. The concentration of 8-PN was monitored every two days (FIG. 7).

[4] = tested on: human fecal cultures; assay: Incubation of IX with human fecal cultures (E-L; 51 fecal samples) for 3 days; type: in vitro ADME
Protocol: as §1
But not all cultures were able to perform this reaction. Therefore, the remaining cultures E-L (10% (v/v)) were incubated for 3 days in Brain Heart Infusion broth (with 0.5 g/l cystein-HCl) under anaerobic conditions with 25 mg/l IX (FIG. 4).
To further investigate these inter-individual differences, a total of 51 fecal samples were incubated for 3 days in Brain Heart Infusion broth (with 0.5 g/l cystein-HCl) under anaerobic conditions, containing 25 mg/l IX (FIG. 5). The results are presented as % 8-PN production relative to the incubated IX concentration and samples were ordered by increasing 8-PN production capacity.

COc1cc(O)c(CC=C(C)C)c2c1C(=O)C[C@@H](c1ccc(O)cc1)O2 [IX, 5-O-methyl-8-prenylnaringenin]
Estrogenic response of incubation extracts ([1]; fecal culture C incubated with 25 mg/l IX, after 8 days): strong increase in the estrogenic properties
Estrogenic response of incubation extracts ([1]; fecal cultures A-D incubated with 25 mg/l IX, day 0): None of the incubations showed an estrogenic response
Transformation of IX [2]: recalcitrant to transformation
Conversion of IX into 8-PN ([3]; 1% supplementation of E. limosum, after one day): half of the dosed IX was already transformed into 8-PN
Conversion of IX into 8-PN ([3]; equal amount of E. limosum culture and fecal sample (100% in FIG. 7)): complete conversion of IX into 8-PN
Microbial O-demethylation of IX ([4]; fecal cultures E-L, 25 mg/l IX, 3 days anaerobic): only detected in samples E, J and K
Share of tested fecal samples in which activation of IX occurred ([4]; fecal samples A-L): only a third of the tested samples
